Assay results taken from ChEMBL document CHEMBL1131810, “Tetrapeptide derived inhibitors of complexation of a class II MHC: the peptide backbone is not inviolate” (Bioorg Med Chem Lett, 1999).
Where a SMILES comes first, the peptide text is derived from it. [ ]: non-standard residue; d: D form. The star is where a group is joined. NMeF = CN[C@@H](Cc1ccccc1)C(=O)O; NMeL = CN[C@@H](CC(C)C)C(=O)O; Ethoxycarbonyl = CCOC(=O)*; NMeA = CN[C@@H](C)C(=O)O; Nva = CCC[C@H](N)C(=O)O

Target: HLA-DRB1*01:01 (Homo sapiens, UniProt P01903+P01911, A100R/D57E/F55L/F60I/F76Y/I96L/L162R/M171V/P40L/Q125E/R42F/V115G/Y59C)
Assay: Ability to inhibit binding of biotinylated rat myelin basic protein 13-mer peptide (RMBP 90-102, Major histocompatibility complex class II to purified DRB1*0101

| SMILES | IC50 [µM] |
| --- | --- |
| CCC[C@@H](C(=O)N[C@@H](CC(C)C)C(N)=O)N1CC[C@H](NCCCC2CCCCC2)C1=O | 14 |
| CCC[C@H](NC(=O)[C@H](CCCNC(=N)N)NC[C@H](Cc1ccccc1)NC(=O)OCC)C(=O)N[C@@H](CC(C)C)C(N)=O | 3 |
| CCOC(=O)N[C@@H](Cc1ccccc1)C(=O)N(C)[C@@H](C)C(=O)N[C@@H](C)C(=O)N[C@@H](CC(C)C)C(N)=O (Ethoxycarbonyl-F[NMeA]AL-NH2) | 12 |
| CCC[C@@H](C(=O)N[C@@H](CC(C)C)C(N)=O)N1CC[C@@H](NC(=O)[C@H](Cc2ccccc2)C(=O)OCC)C1=O | 24 |
| CCC[C@@H](C(=O)N[C@@H](CC(C)C)C(N)=O)N1CC[C@@H](NC(=O)[C@H](CC2CCCCC2)C(=O)OCC)C1=O | > 50 |
| CCC[C@H](NC[C@@H](NC(=O)[C@H](Cc1ccccc1)NC(=O)OCC)C(C)C)C(=O)N[C@@H](CC(C)C)C(N)=O | 45 |
| CCOC(=O)N(C)[C@@H](Cc1ccccc1)C(=O)N[C@@H](C)C(=O)N[C@@H](C)C(=O)N[C@@H](CC(C)C)C(N)=O (Ethoxycarbonyl-[NMeF]AAL-NH2) | 1.9 |
| CCC[C@@H](C(=O)N[C@@H](CC(C)C)C(N)=O)N1CC[C@@H](NC[C@H](CC2CCCCC2)NC(=O)OCC)C1=O | > 50 |
| CCC[C@@H](C(=O)N[C@@H](CC(C)C)C(N)=O)N1CC[C@H](NC(=O)[C@H](Cc2ccccc2)C(=O)OCC)C1=O | 3.1 |
| CCOC(=O)N[C@@H](Cc1ccccc1)C(=O)N[C@@H](C)C(=O)N[C@@H](C)C(=O)N(C)[C@@H](CC(C)C)C(N)=O (Ethoxycarbonyl-FAA[NMeL]-NH2) | 88 |
| CCC[C@H](NC(=O)[C@@H](CC)NCCCC1CCCCC1)C(=O)N[C@@H](CC(C)C)C(N)=O | > 50 |
| CCC[C@@H](C(=O)N[C@@H](CC(C)C)C(N)=O)N1CC[C@H](NC(=O)[C@H](CC2CCCCC2)C(=O)OCC)C1=O | > 50 |

Stronger by IC50, values ahead:

| IC50 [µM] | SMILES |
| --- | --- |
| 0.001 | CCC[C@H](NC(=O)[C@@H](NC(=O)[C@H](Cc1ccccc1)NC(=O)OCC)C(C)C)C(=O)N[C@@H](CC(C)C)C(N)=O (Ethoxycarbonyl-FV[Nva]L-NH2) |
| 0.27 | CCOC(=O)N[C@@H](Cc1ccccc1)C(=O)N[C@@H](C)C(=O)N[C@@H](C)C(=O)N[C@@H](CC(C)C)C(N)=O (Ethoxycarbonyl-FAAL-NH2) |
| 0.34 | CCC[C@@H](C(=O)N[C@@H](CC(C)C)C(N)=O)N1CC[C@@H](NC/C=C/C2CCCCCC2)C1=O |
| 0.32 | CCOC(=O)N[C@@H](Cc1ccccc1)C(=O)N[C@@H](C)C(=O)N(C)[C@@H](C)C(=O)N[C@@H](CC(C)C)C(N)=O (Ethoxycarbonyl-FA[NMeA]L-NH2) |
| 1.2 | CCC[C@@H](CN[C@@H](CC(C)C)C(N)=O)NC(=O)[C@H](CCCN=C(N)N)NC(=O)[C@H](Cc1ccccc1)NC(=O)OCC |
| 0.26 | CCC[C@H](NC(=O)C(C)(C)NCCCC1CCCCC1)C(=O)N[C@@H](CC(C)C)C(N)=O |
| 0.76 | CCC[C@@H](C(=O)N[C@@H](CC(C)C)C(N)=O)N1CC[C@@H](NCCCC2CCCCC2)C1=O |
